Measurements: US9920010B2, “CXCR7 receptor modulators” (IDORSIA PHARMACEUTICALS LTD, priority 2013, dated 2018)

Target: T1, CXCR7 (Homo sapiens, UniProt P25106)
T1 construct: host or cells: CHO-K1 (PathHunter CHO-K1 CXCR7 b-arrestin cell line, stably transfected)
Assay: PathHunter CHO-K1 CXCR7 b-arrestin recruitment assay (CXCR7 agonistic activity)
Format: cell-based
Details: PathHunter CHO-K1 CXCR7 b-arrestin cell line
In short: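 Stable CHO-K1 line with C-terminally ProLink-tagged CXCR7 and β-arrestin 2–EA fusion; β-arrestin recruitment restores β-gal activity, read by chemiluminescence after 1 h RT detection. Cells seeded 24 h, starved in OPTIMEM 3–4 h, exposed to compounds 90 min at 37 °C in HBSS/HEPES/BSA. Geometric-mean EC50 from repeated measurements.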

T1 sequence (P25106 whole entry): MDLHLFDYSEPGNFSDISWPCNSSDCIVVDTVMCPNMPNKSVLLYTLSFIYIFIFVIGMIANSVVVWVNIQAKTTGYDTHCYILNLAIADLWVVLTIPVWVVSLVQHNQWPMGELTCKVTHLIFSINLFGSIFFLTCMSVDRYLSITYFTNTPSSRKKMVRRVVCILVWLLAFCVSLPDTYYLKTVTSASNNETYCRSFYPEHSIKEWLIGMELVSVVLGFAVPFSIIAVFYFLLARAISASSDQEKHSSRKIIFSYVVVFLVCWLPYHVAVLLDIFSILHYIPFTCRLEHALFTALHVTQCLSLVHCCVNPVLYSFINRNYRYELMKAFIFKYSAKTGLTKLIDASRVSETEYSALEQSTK
T1 sequence (P32121 whole entry partner): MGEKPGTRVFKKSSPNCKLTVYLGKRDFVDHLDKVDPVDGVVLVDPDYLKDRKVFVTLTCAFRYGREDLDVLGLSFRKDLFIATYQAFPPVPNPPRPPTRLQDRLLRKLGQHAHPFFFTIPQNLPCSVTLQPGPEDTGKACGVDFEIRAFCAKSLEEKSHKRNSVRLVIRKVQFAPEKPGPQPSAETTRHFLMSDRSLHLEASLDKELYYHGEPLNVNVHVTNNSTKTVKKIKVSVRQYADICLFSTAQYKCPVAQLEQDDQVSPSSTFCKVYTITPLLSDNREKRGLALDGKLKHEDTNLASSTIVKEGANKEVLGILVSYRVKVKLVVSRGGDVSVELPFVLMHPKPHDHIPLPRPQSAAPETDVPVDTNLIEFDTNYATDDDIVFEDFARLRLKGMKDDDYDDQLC

SMILES | EC50 [nM]
CN(CCN(Cc1ncccc1C(F)(F)F)C(=O)CNc1cccc2c1CCN(CC1CC1)C2)CC(F)(F)F [Example 280, 2-(2-Cyclopropylmethyl-1,2,3,4-tetrahydro-isoquinolin-5-ylamino)-N-{2-[methyl-(2,2,2-trifluoro-ethyl)-amino]-ethyl}-N-(3-trifluoromethyl-pyridin-2-ylmethyl)-acetamide] | 28
O=C(CNc1cccc2c1CCN(CC1CC1)C2)N(CCN1CCCC(F)(F)C1)Cc1ccccc1C(F)(F)F [Example 281, 2-(2-Cyclopropylmethyl-1,2,3,4-tetrahydro-isoquinolin-5-ylamino)-N-[2-(3,3-difluoro-piperidin-1-yl)-ethyl]-N-(2-trifluoromethyl-benzyl)-acetamide] | 43
CN(C)CCN(Cc1ccc(Nc2ccc(F)cc2)cn1)C(=O)CNc1cccc2c1CCN(CC1CC1)C2 [Example 285, 2-(2-Cyclopropylmethyl-1,2,3,4-tetrahydro-isoquinolin-5-ylamino)-N-(2-dimethylamino-ethyl)-N-[5-(4-fluoro-phenylamino)-pyridin-2-ylmethyl]-acetamide] | 408
CN(C)CCN(Cc1ccccc1C(F)(F)F)C(=O)CNc1cccc2c1CCN(CCF)C2 [Example 286, N-(2-Dimethylamino-ethyl)-2-[2-(2-fluoro-ethyl)-1,2,3,4-tetrahydro-isoquinolin-5-ylamino]-N-(2-trifluoromethyl-benzyl)-acetamide] | 37
CN(C)CCN(Cc1ccccc1C(F)(F)F)C(=O)CNc1ccc(Cl)c2c1CCN(CC1CC1)C2 [Example 287, 2-(8-Chloro-2-cyclopropylmethyl-1,2,3,4-tetrahydro-isoquinolin-5-ylamino)-N-(2-dimethylamino-ethyl)-N-(2-trifluoromethyl-benzyl)-acetamide] | 150
CN(C)CCN(Cc1ccccc1C(F)(F)F)C(=O)CNc1ccc(F)c2c1CCN(CC1CC1)C2 [Example 288, 2-(2-Cyclopropylmethyl-8-fluoro-1,2,3,4-tetrahydro-isoquinolin-5-ylamino)-N-(2-dimethylamino-ethyl)-N-(2-trifluoromethyl-benzyl)-acetamide] | 23
CN(C)CCN(Cc1ncccc1C(F)(F)F)C(=O)CNc1ccc(F)c2c1CCN(CC1CC1)C2 [Example 289, 2-(2-Cyclopropylmethyl-8-fluoro-1,2,3,4-tetrahydro-isoquinolin-5-ylamino)-N-(2-dimethylamino-ethyl)-N-(3-trifluoromethyl-pyridin-2-ylmethyl)-acetamide] | 16
Cc1ccc2c(c1NCC(=O)N(CCN(C)C)Cc1ccccc1C(F)(F)F)CCN(CC1CC1)C2 [Example 290, 2-(2-Cyclopropylmethyl-6-methyl-1,2,3,4-tetrahydro-isoquinolin-5-ylamino)-N-(2-dimethylamino-ethyl)-N-(2-trifluoromethyl-benzyl)-acetamide] | 5
C[C@H](Nc1cccc2c1CCN(CC1CC1)C2)C(=O)N(CCN(C)C)Cc1ccccc1C(F)(F)F [Example 291, (S)-2-(2-Cyclopropylmethyl-1,2,3,4-tetrahydro-isoquinolin-5-ylamino)-N-(2-dimethylamino-ethyl)-N-(2-trifluoromethyl-benzyl)-propionamide] | 92
CN(C)CCN(Cc1ccccc1C(F)(F)F)C(=O)C1(Nc2cccc3c2CCN(CC2CC2)C3)CC1 [Example 292, 1-(2-Cyclopropylmethyl-1,2,3,4-tetrahydro-isoquinolin-5-ylamino)-cyclopropanecarboxylic acid (2-dimethylamino-ethyl)-(2-trifluoromethyl-benzyl)-amide] | 103
CN(C)CCN(Cc1ccccc1Cl)C(=O)CNc1cc(C(F)(F)F)cc2c1CCN(CC1CC1)C2 [Example 295, N-(2-Chloro-benzyl)-2-(2-cyclopropylmethyl-7-trifluoromethyl-1,2,3,4-tetrahydro-isoquinolin-5-ylamino)-N-(2-dimethylamino-ethyl)-acetamide] | 411
CN(C)CCN(Cc1ccccc1C(F)(F)F)C(=O)CNc1cc(C(F)(F)F)cc2c1CCN(CC1CC1)C2 [Example 296, 2-(2-Cyclopropylmethyl-7-trifluoromethyl-1,2,3,4-tetrahydro-isoquinolin-5-ylamino)-N-(2-dimethylamino-ethyl)-N-(2-trifluoromethyl-benzyl)-acetamide] | 430
COCCN1CCc2c(cccc2NCC(=O)N(CCN(C)C(=O)OC(C)(C)C)Cc2ccccc2C(F)(F)F)C1 [Example 297, {2-[{2-[2-(2-Methoxy-ethyl)-1,2,3,4-tetrahydro-isoquinolin-5-ylamino]-acetyl}-(2-trifluoromethyl-benzyl)-amino]-ethyl}-methyl-carbamic acid tert-butyl ester] | 461
COCCN1CCc2c(cccc2NCC(=O)N(Cc2ccccc2C(F)(F)F)CC(O)COC)C1 (stereo not shown) [Example 299, N-(2-Hydroxy-3-methoxy-propyl)-2-[2-(2-methoxy-ethyl)-1,2,3,4-tetrahydro-isoquinolin-5-ylamino]-N-(2-trifluoromethyl-benzyl)-acetamide] | 291
COCCN1CCc2c(cccc2NCC(=O)N(Cc2ccccc2C(F)(F)F)CC(C)(C)O)C1 [Example 301, N-(2-Hydroxy-2-methyl-propyl)-2-[2-(2-methoxy-ethyl)-1,2,3,4-tetrahydro-isoquinolin-5-ylamino]-N-(2-trifluoromethyl-benzyl)-acetamide] | 208
COCCN1CCc2c(cccc2NCC(=O)N(CCN(C)CCF)Cc2ccccc2C(F)(F)F)C1 [Example 302, N-{2-[(2-Fluoro-ethyl)-methyl-amino]-ethyl}-2-[2-(2-methoxy-ethyl)-1,2,3,4-tetrahydro-isoquinolin-5-ylamino]-N-(2-trifluoromethyl-benzyl)-acetamide] | 27
COCCN1CCc2c(cccc2NCC(=O)N(Cc2ccccc2C(F)(F)F)CC2(C)COC2)C1 [Example 303, 2-[2-(2-Methoxy-ethyl)-1,2,3,4-tetrahydro-isoquinolin-5-ylamino]-N-(3-methyl-oxetan-3-ylmethyl)-N-(2-trifluoromethyl-benzyl)-acetamide] | 246
COCCN1CCc2c(cccc2NCC(=O)N(CCC(C)(C)O)Cc2ccccc2C(F)(F)F)C1 [Example 304, N-(3-Hydroxy-3-methyl-butyl)-2-[2-(2-methoxy-ethyl)-1,2,3,4-tetrahydro-isoquinolin-5-ylamino]-N-(2-trifluoromethyl-benzyl)-acetamide] | 311
C#CCN1CCc2c(cccc2NCC(=O)N(CCN(C)C)Cc2ccccc2C(F)(F)F)C1 [Example 308, N-(2-Dimethylamino-ethyl)-2-(2-prop-2-ynyl-1,2,3,4-tetrahydro-isoquinolin-5-ylamino)-N-(2-trifluoromethyl-benzyl)-acetamide] | 28

Other lines, results leading:

EC50 [nM] | SMILES
8 | O=C(CNc1cccc2c1CCN(CC1CC1)C2)N(CCN1CCC(F)(F)CC1)Cc1ncccc1C(F)(F)F [Example 279, 2-(2-Cyclopropylmethyl-1,2,3,4-tetrahydro-isoquinolin-5-ylamino)-N-[2-(4,4-difluoro-piperidin-1-yl)-ethyl]-N-(3-trifluoromethyl-pyridin-2-ylmethyl)-acetamide]
47 | O=C(CNc1cccc2c1CCN(CC1CC1)C2)N(CCN1CCC(F)(F)C1)Cc1ccccc1C(F)(F)F [Example 282, 2-(2-Cyclopropylmethyl-1,2,3,4-tetrahydro-isoquinolin-5-ylamino)-N-[2-(3,3-difluoro-pyrrolidin-1-yl)-ethyl]-N-(2-trifluoromethyl-benzyl)-acetamide]
11 | O=C(CNc1cccc2c1CCN(CC1CC1)C2)N(CCN1CCCC(F)(F)C1)Cc1ncccc1C(F)(F)F [Example 283, 2-(2-Cyclopropylmethyl-1,2,3,4-tetrahydro-isoquinolin-5-ylamino)-N-[2-(3,3-difluoro-piperidin-1-yl)-ethyl]-N-(3-trifluoromethyl-pyridin-2-ylmethyl)-acetamide]
18 | O=C(CNc1cccc2c1CCN(CC1CC1)C2)N(CCN1CCC(F)(F)C1)Cc1ncccc1C(F)(F)F [Example 284, 2-(2-Cyclopropylmethyl-1,2,3,4-tetrahydro-isoquinolin-5-ylamino)-N-[2-(3,3-difluoro-pyrrolidin-1-yl)-ethyl]-N-(3-trifluoromethyl-pyridin-2-ylmethyl)-acetamide]
114 | COCCN1CCc2c(cccc2NCC(=O)N(CCC(C)(C)C)Cc2ncccc2C)C1 [Example 298, N-(3,3-Dimethyl-butyl)-2-[2-(2-methoxy-ethyl)-1,2,3,4-tetrahydro-isoquinolin-5-ylamino]-N-(3-methyl-pyridin-2-ylmethyl)-acetamide]
96 | COCCN1CCc2c(cccc2NCC(=O)N(CCN2CCC(F)(F)CC2)Cc2ncccc2C(F)(F)F)C1 [Example 300, N-[2-(4,4-Difluoro-piperidin-1-yl)-ethyl]-2-[2-(2-methoxy-ethyl)-1,2,3,4-tetrahydro-isoquinolin-5-ylamino]-N-(3-trifluoromethyl-pyridin-2-ylmethyl)-acetamide]
230 | COCCN1CCc2c(cccc2NCC(=O)N(CCN2CCC(F)(F)CC2)Cc2ncccc2Cl)C1 [Example 305, N-(3-Chloro-pyridin-2-ylmethyl)-N-[2-(4,4-difluoro-piperidin-1-yl)-ethyl]-2-[2-(2-methoxy-ethyl)-1,2,3,4-tetrahydro-isoquinolin-5-ylamino]-acetamide]
39 | COCCN1CCc2c(cccc2NCC(=O)N(CCN(C)C)Cc2ncccc2Cl)C1 [Example 306, N-(3-Chloro-pyridin-2-ylmethyl)-N-(2-dimethylamino-ethyl)-2-[2-(2-methoxy-ethyl)-1,2,3,4-tetrahydro-isoquinolin-5-ylamino]-acetamide]
423 | COCCN1CCc2c(cccc2NCC(=O)N(Cc2ncccc2Cl)CC(C)(C)O)C1 [Example 307, N-(3-Chloro-pyridin-2-ylmethyl)-N-(2-hydroxy-2-methyl-propyl)-2-[2-(2-methoxy-ethyl)-1,2,3,4-tetrahydro-isoquinolin-5-ylamino]-acetamide]
